pIC50: −log10 of the molar value. Where two headings read alike, the source gives them in different places.
Assays:
MDA-MB-435 = test: NCI screen, MDA-MB-435 (Breast Cancer); format: cell-based, human
Description: (§1) The compounds of this invention were also tested against the panel of 60 human cancer cell lines at the National Cancer Institute, Bethesda, Md. […] The cytrotoxicity studies were conducted using a 48 hour exposure, and measuring the optical density of sulforhodamide B-derived color.

NCI-H226 = test: NCI screen, NCI-H226 (Non-Small Cell Lung Cancer); format: cell-based, human
Description: as §1

SK-MEL-5 = test: NCI screen, SK-MEL-5 (Melanoma)
Description: as §1

EKVX = test: NCI screen, EKVX (Non-Small Cell Lung Cancer)
Description: as §1

L1210 leukemia cells = test: MTT cytotoxicity on L1210 cells; format: cell-based, murine; details: 72 hr incubation
Description: The P815 and L1210 cell lines were obtained from American Type Tissue Culture Collection (ATCC). The cell lines were grown in Delbecco's Modified Eagle Medium (DMEM, Atlanta Biologicals) supplemented with 10% fetal bovine serum, Hepes Buffer (2 mM, Mediatech Cellgro, 25-060-Cl), L-Glutamine (2 mM, Mediatech Cellgro), and penicillin/streptomycin (50,000 units penicillin, 50,000 […], Atlanta Biologicals). Cells were maintained at 37° C. in a 5% humidified CO2 atmosphere. Cultured cells were counted using a hemocytometer and resuspended in fresh DMEM at a concentration of 8×10^5 cells/mL. This cell suspension (100 μL) was added to 96 well flat -bottom cell culture plates. At this concentration, 80,000 cells were seeded in each well. Drug solutions (dissolved in DMSO and diluted in DMEM) were added to each well (5 μL/well) resulting in final concentrations ranging from 1×10^−4 to 1×10^−12 M. Quadruplicate wells were prepared for each drug concentration. The plates were incubated for 72 hr at 37° C. in a 5% CO2 atmosphere. MTT (3-(4,5-dimethylthiazol-2-yl)-2,5-diphenyl tetrazolium bromide) was dissolved in PBS (5 mg/ml). After the indicated cell incubation period, 10 μL of this stock MTT solution was added to each well and the plates were further incubated for 4 h at 37° C. in a 5% CO2 atmosphere. […] The contents of the well were mixed thoroughly by pipetting the cell suspension up and down and the plates were allowed to sit at room temperature for 15 min in order to allow for full development of the purple color. The plates were read on a Dynatech Plate Reader, utilizing Dynex Revelation 3.2 software, with a test wavelenth of 570 nm and a reference wavelength of 630 nm.

HOP-62 = test: NCI screen, HOP-62 (Non-Small Cell Lung Cancer)
Description: as §1

SK-MEL-28 = test: NCI screen, SK-MEL-28 (Melanoma)
Description: as §1

[1] = tested on: human colon adenocarcinoma cell line, LS 174T; test: SRB cytotoxicity on LS174T cells; format: cell-based
Description: Cells were seeded in 96-well microtiter plates at densities of 1000 cells/well. The optimal seeding density was determined to ensure exponential growth in control wells throughout the experimental period and to obtain a linear relationship between absorbance at 492 nm and cell number when analyzed by the sulforhodamine B (SRB) assay (43). 24 hours after seeding the cells were incubated for 1 hour or continuously for 3 days with the drugs (concentration range 0.01 to 500 μM). The cells were washed once and then incubated in drug free medium for 6 days. At the end of the incubation cell growth was determined by the SRB assay, which quantifies viable cells by measuring their total cellular protein content. […] Similar studies were conducted against the growth of PC3 (human prostate cancer cells) and MCF-7 (human breast cancer cells).

NCI-H460 = test: NCI screen, NCI-H460 (Non-Small Cell Lung Cancer); format: cell-based, human
Description: as §1

[2] = Log10 Concentration −4.3, 48 hour exposure
[3] = Log10 Concentration −5.3, 48 hour exposure
[4] = Log10 Concentration −6.3, 48 hour exposure
[5] = Log10 Concentration −7.3, 48 hour exposure
[6] = Log10 Concentration −8.3, 48 hour exposure

Description for CCRF-CEM: as §1
Description for HS 578T: The compounds of this invention were also tested against the panel of 60 human cancer cell lines at the National Cancer Institute, Bethesda, Md. (44). The cytrotoxicity studies were conducted using a 48 hour exposure, and measuring the optical density of sulforhodamide B-derived color.
Description for MOLT-4: as §1
Description for U251: as §1

O=C(Nc1cc(O)ccc1CCCl)c1cc2cc(NC(=O)c3cc4ccccc4o3)ccc2[nH]1 [Compound 1, 4-(2-Chloroethyl)-3-[5-(5-benzofuran-2-carboxamido)indole-2-carboxamido]phenol]
CC50 (HS 578T): > 100000 nM
CC50 (MOLT-4): > 100000 nM
GI50 (MDA-MB-435): 1890 nM
TGI (MDA-MB-435): 3.75E−06 Molar
Percent Growth (MDA-MB-435; Log10 Concentration −4.0): −94%
Percent Growth (MDA-MB-435; Log10 Concentration −6.0): 96%
GI50 (NCI-H226): 4090 nM
TGI (NCI-H226): 1.62E−05 Molar
Percent Growth (NCI-H226; Log10 Concentration −4.0): −90%
Percent Growth (NCI-H226; Log10 Concentration −8.0): 100%
GI50 (SK-MEL-5): 1730 nM
TGI (SK-MEL-5): 3.34E−06 Molar
Percent Growth (SK-MEL-5; Log10 Concentration −4.0): −97%
Percent Growth (SK-MEL-5; Log10 Concentration −6.0): 92%
Percent Growth (SK-MEL-5; Log10 Concentration −7.0): 104%
CC50 (SR): > 100000 nM
GI50 (EKVX): 1780 nM
TGI (EKVX): 4.41E−06 Molar
Percent Growth (EKVX; Log10 Concentration −4.0): −80%
Percent Growth (EKVX; Log10 Concentration −7.0): 96%
pIC50 (L1210 leukemia cells): 4.64
CC50 (U251): 53900 nM
GI50 (HOP-62): 453 nM
TGI (HOP-62): 3.07E−06 Molar
Percent Growth (HOP-62; Log10 Concentration −4.0): −98%
GI50 (SK-MEL-28): 2400 nM
TGI (SK-MEL-28): 6.10E−06 Molar
Percent Growth (SK-MEL-28; Log10 Concentration −4.0): −98%
Percent Growth (SK-MEL-28; Log10 Concentration −6.0): 97%
Percent Growth (SK-MEL-28; Log10 Concentration −8.0): 103%
CC50 (CCRF-CEM): > 100000 nM
GI50 (A549/ATCC): 1980 nM
TGI (A549/ATCC): 6.58E−06 Molar
Percent Growth (A549/ATCC; Log10 Concentration −4.0): −100%
Percent Growth (A549/ATCC; Log10 Concentration −6.0): 78%
Percent Growth (A549/ATCC; Log10 Concentration −8.0): 96%
pIC50 ([1]; continuous exposure, read-out: IC50 LS174T Continuous exposure): 5.64
pIC50 ([1]; read-out: IC50 LS174T 1 hour exposure, 1 hour exposure): 4.74

COC(=O)c1[nH]c2c(O)cc(NC(=O)c3cc4cc(OC)c(OC)c(OC)c4[nH]3)c(CCCl)c2c1C(=O)OC [Compound 22, Dimethyl 4-(2-chloroethyl)-7-hydroxy-5-(5,6,7-trimethoxyindole-2-carboxamido)indole-2,3-dicarboxylate]
TGI (MDA-MB-435; 48 hour exposure): 3.95E−07 Molar
Percent Growth (MDA-MB-435; [2]): −32%
Percent Growth (MDA-MB-435; [3]): −28%
Percent Growth (MDA-MB-435; [4]): −11%
Percent Growth (MDA-MB-435; [5]): 97%
Percent Growth (MDA-MB-435; [6]): 96%
TGI (NCI-H226; 48 hour exposure): 2.21E−07 Molar
Percent Growth (NCI-H226; [2]): −76%
Percent Growth (NCI-H226; [3]): −55%
Percent Growth (NCI-H226; [4]): −38%
Percent Growth (NCI-H226; [5]): 69%
Percent Growth (NCI-H226; [6]): 104%
Percent Growth (SK-MEL-5; [2]): −19%
Percent Growth (SK-MEL-5; [3]): 9%
Percent Growth (SK-MEL-5; [4]): −2%
Percent Growth (SK-MEL-5; [5]): 42%
Percent Growth (SK-MEL-5; [6]): 86%
TGI (EKVX; 48 hour exposure): 5.14E−07 Molar
Percent Growth (EKVX; [2]): −83%
Percent Growth (EKVX; [3]): −62%
Percent Growth (EKVX; [4]): 1%
Percent Growth (EKVX; [5]): 102%
Percent Growth (EKVX; [6]): 102%
TGI (NCI-H460; 48 hour exposure): 5.64E−06 Molar
Percent Growth (NCI-H460; [2]): −69%
Percent Growth (NCI-H460; [3]): 4%
Percent Growth (NCI-H460; [4]): 8%
Percent Growth (NCI-H460; [5]): 73%
Percent Growth (NCI-H460; [6]): 84%
TGI (HOP-62; 48 hour exposure): 2.51E−07 Molar
Percent Growth (HOP-62; [2]): −88%
Percent Growth (HOP-62; [3]): −39%
Percent Growth (HOP-62; [4]): −34%
Percent Growth (HOP-62; [5]): 80%
Percent Growth (HOP-62; [6]): 92%
TGI (SK-MEL-28; 48 hour exposure): 1.82E−06 Molar
Percent Growth (SK-MEL-28; [2]): −43%
Percent Growth (SK-MEL-28; [3]): −11%
Percent Growth (SK-MEL-28; [4]): 14%
Percent Growth (SK-MEL-28; [5]): 92%
Percent Growth (SK-MEL-28; [6]): 91%
Percent Growth (A549/ATCC; [2]): 5%
Percent Growth (A549/ATCC; [3]): 12%
Percent Growth (A549/ATCC; [4]): −6%
Percent Growth (A549/ATCC; [5]): 93%
Percent Growth (A549/ATCC; [6]): 108%

Reference: US6660742B2, “Compositions and methods of the use thereof achiral analogues of CC-1065 and the duocarmycins” (priority 2000, dated 2003)
